From patent US4461907A, “Amino-substituted flavans useful as anti-viral agents” (priority 1978, dated 1984)
Read-outs that look alike come from different tables or passages of the source.

What was measured:
rhinovirus serotype 1B = assay: plaque reduction test; assay type: cell-based; settings: Enterovirus
Source text: Plaque suppression is proportional to compound concentration.

rhinoviruses [1] = assay: activity in tests (novel compounds)
in vivo = settings: mouse, po
Procedure: Retro-orbital bleedings were performed at half, an hour, and 1 hour after administration of the dose, and hourly thereafter to 7 hours, and again at 24 hours. The plasma was harvested from these bleedings and was tested for antiviral activity using the plaque inhibition test described above. The total faeces of each mouse were collected after 24 hours and were macerated with a minimum of absolute alcohol, which liquid was then tested for antiviral activity by the plaque inhibition test. The gall bladders of the mice were removed and each was extracted with 10 μl of absolute alcohol, which extract was also tested by the plaque inhibition test.

rhinoviruses [2] = assay: in vitro tests in culture
viral hepatitis = settings: Lancet;2;1153 (1977); cited from earlier work
[3] = rhinovirus serotype 1B, plaque reduction test, read-out: ED50 (the source's name)

In the case of `Fc1ccc(C2CCc3cc(I)ccc3O2)cc1` (stereo not drawn) [4'-fluoro-6-iodo, 6-iodo-4'-fluoro], the EC50 (rhinovirus serotype 1B; [3]) is reported as 28 nM.
In the case of `Clc1cccc(Cl)c1C1CCc2ccccc2O1` (stereo not drawn) [2',6'-dichloro-, 2',6'-Dichloroflavan], the EC50 (rhinovirus serotype 1B; [3]) is reported as 48 nM.
`CN(C)c1ccc(C2CCc3ccccc3O2)cc1` (stereo not drawn) [4'-N,N--dimethylamino-, 4'-(N,N-dimethylamino)flavan] showed an EC50 (rhinovirus serotype 1B; [3]) of 265 nM.
With `Fc1ccc(C2CCc3cc(F)ccc3O2)cc1` (stereo not drawn) [4',6-difluoro-, 4'-6-difluoro] the EC50 (rhinovirus serotype 1B; [3]) was 68 nM.
`Clc1ccccc1C1CCc2ccccc2O1` (stereo not drawn) [2'-chloro-, 2'-chloroflavan] showed an EC50 (rhinovirus serotype 1B; [3]) of 112 nM.
In the case of `COc1cccc(C2CCc3ccccc3O2)c1` (stereo not drawn) [3'-methoxyl-, 3'-methoxyflavan], the EC50 (rhinovirus serotype 1B; [3]) is reported as 125 nM.
`COc1ccc(C2CCc3ccccc3O2)cc1` (stereo not drawn) [4'-methoxyl-, 4'-methoxyflavan] gave an EC50 (rhinovirus serotype 1B; [3]) of 70 nM.
With `CCc1ccc2c(c1)CCC(c1ccc(Cl)cc1)O2` (stereo not drawn) [4'-chloro-6-ethyl-, 4'-chloro-6-ethyl-flavan] the EC50 (rhinovirus serotype 1B; [3]) was 52 nM.
With `Oc1ccc(C2CCc3ccccc3O2)cc1` (stereo not drawn) [4'-hydroxy-, 4'-hydroxyflavan] the EC50 (rhinovirus serotype 1B; [3]) was 60 nM.
With `Brc1ccc(C2CCc3ccccc3O2)cc1` (stereo not drawn) [4'-bromo-, 4'-Bromoflavan] the EC50 (rhinovirus serotype 1B; [3]) was 36 nM.
`Brc1ccc2c(c1)CCC(c1ccccc1)O2` (stereo not drawn) [Example 6-bromo-, 6-bromo flavan] gave an EC50 (rhinovirus serotype 1B; [3]) of 19 nM.
`Brc1ccc2c(c1)CCC(c1ccc(I)cc1)O2` (stereo not drawn) [6-bromo-4'-iodo-, 6-bromo-4'-iodo] showed an EC50 (rhinovirus serotype 1B; [3]) of 21 nM.
With `Cc1ccc(C2CCc3cc(Cl)ccc3O2)cc1` (stereo not drawn) [4'-methyl-6-chloro-, 6-Chloro-4'-methyl-flavan] the EC50 (rhinovirus serotype 1B; [3]) was 2.3 nM and the activity in tests (rhinoviruses [1]) was “highest activity in tests”.
`Clc1ccc(C2CCc3ccccc3O2)c(Cl)c1` (stereo not drawn) [2',4'-dichloro-, 2',4'-Dichloro-flavan] showed an EC50 (rhinovirus serotype 1B; [3]) of 64 nM.
In the case of `CC(C)c1ccc(C2CCc3cc(Cl)ccc3O2)cc1` (stereo not drawn) [6-chloro-4-(1-methylethyl), 6-chloro 4'-isopropylflavan], the EC50 (rhinovirus serotype 1B; [3]) is reported as 36 nM.
`Clc1ccc2c(c1)CCC(c1ccc(Br)cc1)O2` (stereo not drawn) [4'-bromo-6-chloro, 4'-bromo-6-chloro-flavan] showed an EC50 (rhinovirus serotype 1B; [3]) of 21 nM.
For `Clc1ccc2c(c1)OC(c1ccccc1)CC2` (stereo not drawn) [Example 7-chloro-, 7-Chloroflavan], the EC50 (rhinovirus serotype 1B; [3]) was 70 nM.
In the case of `Fc1ccc2c(c1)CCC(c1ccc(Cl)cc1)O2` (stereo not drawn) [4'-chloro-6-fluoro-, 6-fluoro-4'-chloroflavan], the EC50 (rhinovirus serotype 1B; [3]) is reported as 15 nM and the activity in tests (rhinoviruses [1]) is reported as “highest activity in tests”.
For `Cc1ccc2c(c1)CCC(c1ccccc1)O2` (stereo not drawn) [Example 6-methyl-, 6-methylflavan], the EC50 (rhinovirus serotype 1B; [3]) was 150 nM.
In the case of `N#Cc1ccc2c(c1)CCC(c1ccccc1)O2` (stereo not drawn) [Example 6-cyano-, 6-cyano], the EC50 (rhinovirus serotype 1B; [3]) is reported as 38 nM.
In the case of `Clc1ccc(C2CCc3ccccc3O2)cc1Cl` (stereo not drawn) [3',4'-dichloro-, 3',4'-Dichloro-flavan], the EC50 (rhinovirus serotype 1B; [3]) is reported as 40 nM.
For `Oc1ccccc1C1CCc2ccccc2O1` (stereo not drawn) [2'-hydroxyl-, 2'-hydroxyflavan], the EC50 (rhinovirus serotype 1B; [3]) was 780 nM.
`COc1ccc(C2CCc3cc(C)ccc3O2)cc1` (stereo not drawn) [4'-methoxyl-6-methyl-, 4'-Methoxy-6-methyl-flavan] gave an EC50 (rhinovirus serotype 1B; [3]) of 100 nM.
`Nc1ccc(C2CCc3ccccc3O2)cc1` (stereo not drawn) [4'-amino-, 4'-aminoflavan] showed an EC50 (rhinovirus serotype 1B; [3]) of 50 nM.
For `Clc1ccc(C2CCc3cc(Cl)ccc3O2)cc1` (stereo not drawn) [4',6-dichloro-, 4',6-Dichloroflavan], the concentration at 1 h (in vivo; 30 mg/kg) was 2 to 4 µM and the concentration at 1 h (in vivo; 100 mg/kg) was 10 µM.
With `Fc1ccc2c(c1)CCC(c1ccc(Br)cc1)O2` (stereo not drawn) [4'-bromo-6-fluoro-, 6-fluoro-4'-bromoflavan] the EC50 (rhinovirus serotype 1B; [3]) was 13 nM and the activity in tests (rhinoviruses [1]) was “highest activity in tests”.
In the case of `Clc1ccc(C2CCc3cc(I)ccc3O2)cc1` (stereo not drawn) [4'-chloro-6-iodo-, 6-iodo-4'-chloroflavan], the EC50 (rhinovirus serotype 1B; [3]) is reported as 15 nM and the activity in tests (rhinoviruses [1]) is reported as “highest activity in tests”.
Work on `Clc1ccc(C2CCc3ccc(Cl)cc3O2)cc1` (stereo not drawn) [4',7-dichloro-, 4',7-Dichloroflavan] yielded an EC50 (rhinovirus serotype 1B; [3]) of 48 nM.
With `Clc1ccc(C2CCc3ccccc3O2)cc1` (stereo not drawn) [4'-chloro-, 4'-chloroflavan] the EC50 (rhinovirus serotype 1B; read-out: ED50) was 40 nM.
In the case of `Fc1ccc(C2CCc3cc(Cl)ccc3O2)cc1` (stereo not drawn) [6-chloro-4'-fluoro, 6-chloro-4'-fluoro-flavan], the EC50 (rhinovirus serotype 1B; [3]) is reported as 16 nM and the activity in tests (rhinoviruses [1]) is reported as “highest activity in tests”.
Compound `CC(=O)Oc1ccc(C2CCc3ccccc3O2)cc1` (stereo not drawn) [4'-acetoxyl-] has an EC50 (rhinovirus serotype 1B; [3]) of 67 nM.
For `Cc1ccc(C2CCc3ccccc3O2)cc1` (stereo not drawn) [4'-methyl-, 4'-methylflavan], the EC50 (rhinovirus serotype 1B; [3]) was 12.5 nM and the activity in tests (rhinoviruses [1]) was “highest activity in tests”.
In the case of `COc1ccc(C2CCc3cc(Cl)ccc3O2)cc1` (stereo not drawn) [4'-methoxyl-6-chloro-, 6-Chloro-4'-methoxy-flavan], the EC50 (rhinovirus serotype 1B; [3]) is reported as 13 nM and the activity in tests (rhinoviruses [1]) is reported as “highest activity in tests”.
For `Ic1ccc(C2CCc3cc(I)ccc3O2)cc1` (stereo not drawn) [4',6-diiodo-, 4',6-diiodo], the EC50 (rhinovirus serotype 1B; [3]) was 43 nM.
For `N#Cc1ccc(C2CCc3cc(C#N)ccc3O2)cc1` (stereo not drawn) [4',6-cyano, 4',6-dicyanoflavan], the EC50 (rhinovirus serotype 1B; [3]) was > 10 nM and the activity in tests (rhinoviruses [1]) was “highest activity in tests”.
In the case of `Ic1ccc2c(c1)CCC(c1ccccc1)O2` (stereo not drawn) [Example 6-iodo-, 6-iodo], the EC50 (rhinovirus serotype 1B; [3]) is reported as 58 nM.
For `Cc1ccc2c(c1)CCC(c1ccc(Cl)c(Cl)c1)O2` (stereo not drawn) [3',4'-dichloro-6-methyl-, 3',4'-Dichloro-6-methylflavan], the EC50 (rhinovirus serotype 1B; [3]) was 17 nM and the activity in tests (rhinoviruses [1]) was “highest activity in tests”.
Compound `Cc1ccccc1C1CCc2ccccc2O1` (stereo not drawn) [2'-methyl-, 2'-Methylflavan] has an EC50 (rhinovirus serotype 1B; [3]) of 15 nM.
`Cc1ccc(C2CCc3cc(Br)ccc3O2)cc1` (stereo not drawn) [6-bromo-4'-methyl-, 6-bromo-4'-methylflavan] showed an EC50 (rhinovirus serotype 1B; [3]) of 18 nM.
For `c1ccc(C2CCc3ccccc3O2)cc1` (stereo not drawn) [flavan, Flavan], the activity against rhinoviruses (rhinoviruses [2]) was “quite good activity against rhinoviruses” and the EC50 (rhinovirus serotype 1B; [3]) was 46 nM.
For `Clc1ccc(C2CCc3cc(Br)ccc3O2)cc1` (stereo not drawn) [6-bromo-4'-chloro-, 6-bromo-4'-chloro-flavan], the EC50 (rhinovirus serotype 1B; [3]) was 5 nM.
For `OC1Cc2ccccc2OC1c1ccccc1` (stereo not drawn) [-3-hydroxy flavan], the “effect against viral hepatitis” value (viral hepatitis) is listed as “without success”.
`Cc1cccc(C2CCc3ccccc3O2)c1` (stereo not drawn) [3'-methyl-, 3'-methylflavan] gave an EC50 (rhinovirus serotype 1B; [3]) of 290 nM.
For `Brc1ccc(C2CCc3cc(Br)ccc3O2)cc1` (stereo not drawn) [4',6-dibromo-, 4',6-dibromoflavan], the EC50 (rhinovirus serotype 1B; [3]) was 8 nM and the activity in tests (rhinoviruses [1]) was “highest activity in tests”.
For `Cc1ccc2c(c1)OC(c1ccc(Cl)cc1)CC2` (stereo not drawn) [4'-chloro-7-methyl-, 4'-chloro-7-methyl-flavan], the EC50 (rhinovirus serotype 1B; [3]) was 15.5 nM and the activity in tests (rhinoviruses [1]) was “highest activity in tests”.
`FC(F)(F)c1cccc(C2CCc3ccccc3O2)c1` (stereo not drawn) [3'-trifluoromethyl, 3'-trifluoromethyl-flavan] showed an EC50 (rhinovirus serotype 1B; [3]) of 1400 nM.
Work on `Cc1ccc(C2CCc3cc(C)ccc3O2)cc1` (stereo not drawn) [4',6-dimethyl-, 4',6-Dimethylflavan] yielded an EC50 (rhinovirus serotype 1B; [3]) of 42 nM.
With `Clc1ccc2c(c1)CCC(c1ccccc1)O2` (stereo not drawn) [Example 6-chloro-, 6-chloroflavan] the EC50 (rhinovirus serotype 1B; [3]) was 50 nM.
Compound `Cc1ccc(C2CCc3ccc(Cl)cc3O2)cc1` (stereo not drawn) [4'-methyl-7-chloro-, 7-Chloro-4'-methyl-flavan] has an EC50 (rhinovirus serotype 1B; [3]) of 83 nM.
Work on `Fc1ccc2c(c1)CCC(c1ccccc1)O2` (stereo not drawn) [Example 6-fluoro-, 6-fluoro flavan] yielded an EC50 (rhinovirus serotype 1B; [3]) of 20 nM.
In the case of `N#Cc1ccc2c(c1)CCC(c1ccc(Cl)cc1)O2` (stereo not drawn) [4'-chloro-6-cyano, 6-cyano-4'-chloroflavan], the EC50 (rhinovirus serotype 1B; [3]) is reported as 6 nM and the activity in tests (rhinoviruses [1]) is reported as “highest activity in tests”.
In the case of `Clc1cccc(C2CCc3ccccc3O2)c1` (stereo not drawn) [3'-chloro-, 3'-chloroflavan], the EC50 (rhinovirus serotype 1B; [3]) is reported as 270 nM.
With `COc1ccc2c(c1)CCC(c1ccccc1)O2` (stereo not drawn) [Example 6-methoxyl-, 6-methoxyflavan] the EC50 (rhinovirus serotype 1B; [3]) was 12.5 nM and the activity in tests (rhinoviruses [1]) was “highest activity in tests”.
With `Fc1ccc(C2CCc3ccccc3O2)cc1` (stereo not drawn) [4'-fluoro-, 4'-flouroflavan] the EC50 (rhinovirus serotype 1B; [3]) was 17.5 nM and the activity in tests (rhinoviruses [1]) was “highest activity in tests”.
Compound `Brc1ccc(C2CCc3cc(I)ccc3O2)cc1` (stereo not drawn) [4'-bromo-6-iodo] has an EC50 (rhinovirus serotype 1B; [3]) of 76 nM.
For `Fc1ccc(C2CCc3cc(Br)ccc3O2)cc1` (stereo not drawn) [6-bromo-4'-fluoro], the EC50 (rhinovirus serotype 1B; [3]) was 29 nM.
